Values quoted from earlier work as cited in US20260183709A1, “GAS PURIFICATION METHOD AND GAS PURIFIER” (priority 2022, published 2026).
Like-named read-outs stand apart in the source and are kept apart here.

Key:
[1] = tested on: escherichia coli; details: in the 25° C. air; ozone concentration 0.05 ppm; acting time 30 minutes
[2] = tested on: pseudomonas aeruginosa; details: ozone concentration 0.08-0.6 ppm; acting time 30 minutes
[3] = tested on: staphylococcus aureus; details: in the air; ozone concentration 9 ppm; acting time 60 minutes
[4] = tested on: staphylococcus albus; details: ozone concentration 10 ppm; acting time 3 minutes
[5] = tested on: pseudomonas fluorescens; details: phosphate buffer solution; ozone introduction; acting time 15 seconds
[6] = tested on: Salmonella typhimurium; details: phosphate buffer solution; ozone introduction; acting time 15 seconds
[7] = tested on: F's dysentery bacillus; details: phosphate buffer solution; ozone introduction; acting time 15 seconds
[8] = tested on: Vibrio cholerae; details: phosphate buffer solution; ozone introduction; acting time 15 seconds
[9] = tested on: escherichia coli; details: 10° C.; ozone concentration 0.3 ppm; acting time 1 minute
[10] = tested on: bacillus subtilis variant; details: in the air; ozone concentration 2.5 mg/L; acting time 1 minute
[11] = tested on: bacillus subtilis variant; details: in water; ozone concentration 4.6 mg/L; acting time 3 minutes
[12] = tested on: HAsAg; details: in water; ozone concentration 13.6 ppm; acting time 30 minutes (cells shared with line above)
[13] = tested on: HBsAg; details: in the air; ozone concentration 0.3 ppm; acting time 30 minutes
[14] = tested on: Influenza A virus; details: ozone concentration 0.5 ppm; conditions and time not printed on the line (line above: in the air, 30 minutes)
[15] = tested on: poliovirus; details: in water; ozone concentration 0.13 ppm; acting time 3 minutes
[16] = tested on: escherichia coli phage; details: ozone concentration 0.09-0.8 ppm; acting time 3 minutes
[17] = tested on: simian rotavirus; details: ozone concentration 0.25 ppm
[18] = tested on: human rotavirus; details: ozone concentration 0.25 ppm
[19] = tested on: human immunodeficiency virus (HIV); details: in serum; ozone concentration 4 ppm
[20] = tested on: aspergillus versicolor; details: in the air; ozone concentration 9.6 ppm; acting time 100 minutes
[21] = tested on: cladosporium herbarum; details: ozone concentration 23 ppm; acting time 30 minutes; killing rate cell shared with r37
[22] = tested on: penicillium nigricans; details: ozone concentration 12.5 ppm; acting time 35 minutes; killing rate cell shared with r37
[23] = tested on: penicillium citrinum; details: ozone concentration 15.4 ppm; acting time 30 minutes; killing rate cell shared with r37
[24] = tested on: fusarium oxysporum; details: ozone concentration 15.5 ppm; acting time 20 minutes; killing rate cell shared with r37
[25] = tested on: penicillium; details: in the air; acting time 30 minutes; no ozone concentration printed
[26] = tested on: mucor; details: acting time 30 minutes; killing rate cell shared with penicillium line; no ozone concentration printed
[27] = tested on: aspergillus niger; details: ozone concentration 1.5 ppm; acting time 1 minute; 'in water' printed on the line above
[28] = tested on: common bacteria such as Escherichia coli, streptococcus, Pseudomonas aeruginosa, Staphylococcus aureus, and toxic bacteria; details: in 15 minutes in the ozone environment
[29] = tested on: bacteria

O=[O+][O-] [Ozone, ozone]
Killing rate [1]: 100%
Killing rate [2]: 99.9%
Killing rate [3]: 99.97%
Killing rate [4]: 99.99%
Killing rate [5]: 100%
Killing rate [6]: 100%
Killing rate [7]: 100%
Killing rate [8]: 100%
Killing rate [9]: 100%
Killing rate [10]: 100%
Killing rate [11]: 100%
Killing rate [12]: 100%
Killing rate [13]: 75%
Killing rate [14]: 100%
Killing rate [15]: 100%
Killing rate (drop by log values) [16]: drop by 7 log log values
Killing rate [17]: 100%
Killing rate [18]: 100%
Killing rate (drop by log values in titer) [19]: drop by 6 log values in titer
Killing rate [20]: 100%
Killing rate [21]: 100%
Killing rate [22]: 100%
Killing rate [23]: 100%
Killing rate [24]: 100%
Killing rate [25]: 93.8%
Killing rate [26]: 93.8%
Killing rate [27]: 100%
sterilization rate [28]: above 99%
sterilization rate faster than chlorine ([29]; compared with chlorine): 600-3000 times
bactericidal ability higher than the ultraviolet rays ([29]; compared with ultraviolet rays): 20%
sterilization rate faster in the water than chlorine ([29]; in the water, compared with chlorine): 600 times
